“Also recorded” adds a separate entry of the source. Numbered stars: 1 amine (or outer) side, 2 acyl side, 3 side chain; on linkers, the order of the positions; unused ones are H or OH. Bridge positions count the residues as written; N and C are the ends. Square brackets hold non-standard residues; d marks the D form. Peptide text beside a SMILES is read from it. * marks the point of attachment. Leu(3R-OH,Nα-propionyl) = CCC(=O)N[C@H](C(=O)*)[C@H](O)C(C)C; X1 = CC(C)[C@@H](O[*:3])[C@H](N[*:1])C(=O)[*:2]; NMeT = CN[C@H](C(=O)O)[C@@H](C)O; dPhLac = O=C(O)[C@H](O)Cc1ccccc1; NMeA = CN[C@@H](C)C(=O)O; NMeDha = C=C(NC)C(=O)O
Tests used:
OM cells = assay: FAKi/MEKi combination cell viability, synergy by Chou-Talalay CI and Bliss score; type: cell-based, human
From the text: Applicant performed detailed combinatorial analysis achieving ERK pathway inhibition by a clinical MEK inhibitor, trametinib, combined with FAKi (VS-4718) at a series of dilutions of drug combinations. Drug combinations scored as synergistic (i. e., > than additive) are identified by using the most widely used methodologies: the Chou-Talalay combination index (CI) (Chou, 2010; Chou, 1984; and Chou, 2006) and the Bliss independence score (ΔBliss) (Chou, 2010; Chou, 2006; Berenbaum, 1989; Greco, 1995; and Geary, 2013) as Applicant recently described (Yamaguchi et al., 216).

[1] = system: SK-MEL-28 cells (BRAF mutant SKCM); assay: Cell viability assay in SKCM control cell line; type: cell-based, human
Protocol: (§1) HEK293 and HEK293T cells were cultured in DMEM (Sigma-Aldrich Inc., MO) containing 10% FBS (Sigma-Aldrich Inc., MO) and 1× antibiotic/antimycotic solution (Sigma-Aldrich Inc., MO). Culture conditions for UM cells (OMM1.3, OMM1.5, MEL202, Mel270 and 92.1) have been described elsewhere (Schmitt et al., 2007; Zuidervaart et al., 2005). SK-MEL-28 cells were purchased from ATCC and cultured following ATCC recommendations in EMEM containing 10% FBS. VS-4718 (PND-1186) was purchased from MedChemExpress (MCE) pre-prepared as a 10 mM solution in DMSO. FR900359 (FR) was graciously supplied by the lab of Dr. Evi Kostenis.
(§2) Cell growth assays were performed as described previously (Yamaguchi et al., 2016). Cells were cultured in 96-well-plate and treated with drugs for 72 hr. The manufacturer's instructions of Alamar Blue Cell Viability Reagent were followed to complete the assay.

[2] = system: UM cell lines (92.1, OMM1.3, OMM1.5, Mel270, Mel202; GNAQ mutant); assay: Cell viability assay (Alamar Blue) in UM cell lines; type: cell-based, human
Protocol: as §1, §2

FAK [3] = assay: Immunoblot of FAK phosphorylation (pY397-FAK) in UM cells; type: cell-based, human; conditions: OMM1.3 / Mel270 cells
Protocol: (§3) Western blot assays were performed as described previously (Feng et al., 2014b). Western blots were developed using Immobilon Western Chemiluminescent HRP substrate (Millipore, MA) according to the manufacturer's instructions.

ERK [4] = assay: Immunoblot of ERK phosphorylation in UM cells; type: cell-based, human; conditions: OMM1.3 cells
Protocol: as §3

ERK [5] = assay: Immunoblot of ERK phosphorylation in Gαq-DREADD expressing HEK293 cells stimulated with CNO; type: cell-based, human; conditions: CNO stimulation, 1 hr pre-treatment
Protocol: as §3

FAK [6] = assay: Immunoblot of FAK phosphorylation in Gαq-DREADD expressing HEK293 cells stimulated with CNO; type: cell-based, human; conditions: CNO stimulation, 1 hr pre-treatment
Protocol: as §3

92.1 xenograft = assay: 92.1 OM xenografts treated with MEKi, FAKi or both; type: in vivo, mice; conditions: 92.1 xenografts; trametinib 1 mg/kg QD i.p., VS-4718 50 mg/kg BID p.o.
From the text: FIGS. 17A and 17B show potent antitumoral and cytotoxic effects of FAKi/MEKi combination in OM xenografts. […] (FIG. 17B) Quantification of IHC tumor sections stained for BrdU, cleaved-caspase3 (Cl-Casp3), pERK1/2, and YAP. For each panel, the bars from left to right are control, MEKi, FAKi and MEKi+FAKi. Data are mean±SEM (7 mice/group), *p<0.05;**p<0.01; ***p<0.001; n. s. not significant.

[7] = system: YAP-target genes CTGF and CYR61; assay: qPCR of YAP-target genes CTGF and CYR61 in UM cells; type: cell-based, human; conditions: 1 μM, 2 hr
[8] = system: Hippo pathway components (YAP, LATS1, MOB1, MST1); assay: Immunoblot / immunoprecipitation of YAP and Hippo pathway components in UM cells; type: cell-based, human
Protocol: as §3
Cells were lysed with IP lysis buffer [10 mM Tris-Cl (pH 8.0), 150 mM NaCl, 1 mM EDTA, 0.3% CHAPS, 50 mM NaF, 1.5 mM Na3VO4, protease inhibitor (Thermo Scientific, CO), 1 mM DTT, 1 mM PMSF], and centrifuged at 16,000 g for 5 min at 4° C. Supernatants were incubated with first antibody for 1 hr at 4° C., and protein G or protein A conjugated resin for another 1 hr. Resins were then washed 3 times with lysis buffer and boiled in SDS-loading buffer.

OMM1.3 cells [9] = assay: Immunoblot of cleaved PARP (apoptosis) in UM cells; type: cell-based, human; conditions: OMM1.3, 36 hr
Protocol: as §3

YAP-signature genes = assay: RNA-seq and Gene Set Enrichment Analysis of UM cells treated with FAKi; type: cell-based, human; conditions: OMM1.3, 1 μM, 2 hr
From the text: FAK is at the intersection of multiple signaling pathways that promote cancer progression (Sulzmaier et al., 2014), but it is not clear which downstream targets of FAK play a critical role in UM. As an approach to identify key downstream targets of the Gαq− FAK signaling axis, Applicant performed transcriptomic RNA-sequencing on UM cells treated with FAKi (i.e., FAK inhibitor), and performed Gene Set Enrichment Analysis (GSEA) (Subramanian et al., 2005) to characterize the transcriptional effects of inhibiting Gαq and FAK at the pathway level using over 10,000 gene sets from the MSigDB (Molecular Signatures Database), including two sub-collections of oncogenic signatures and hallmark gene sets that Applicants added to the database (Liberzon et al., 2015). […] These include the downregulation of genes described as stimulated by KRAS and EGFR and cytokines such as IL21 and IL15, consistent with the likely role in the activation of growth promoting pathways by FAK (Sulzmaier et al., 2014). […] In both cases, FAK inhibition or knockdown reduced YAP pY357 and increased pS127, and reduced mRNA levels of YAP targets and YAP activity measured by luciferase reporter assay (FIGS. 7A-7E), similar to UM cells.

OMM1.3 cells [10] = assay: Colony formation assay in semisolid media (3D culture); type: cell-based, human; conditions: OMM1.3, semisolid media
Protocol: 3-dimensional cultures were performed as described previously (Tancioni et al., 2015). Briefly, 10,000 cells were embedded in 1% methylcellulose diluted in growth media and plated onto 6-well poly-hydroxyethyl methacrylic acid (poly-HEMA)-coated plates.

YAP = YAP nuclear/cytoplasmic localization (immunofluorescence, fractionation western blot) in UM cells; type: cell-based, human; conditions: OMM1.3, 1 μM
Protocol: Cells cultured on coverslips were washed with PBS, fixed with 3.7% formaldehyde in phosphate-buffered saline (PBS) for 30 min, and permeabilized using 0.05% Triton X-100 for 10 min. Fixed cells were blocked with 3% FBS-containing PBS for 30 min, and incubated with YAP (Cell signaling technology, MI) antibody (in 3% FBS-PBS otherwise stated) for 1 hr at room temperature. The reaction was visualized with Alexa-labeled secondary antibodies (Invitrogen, CA). Samples were mounted in PBS buffer containing Hoechst 33342 (Molecular Probes, OR) for nuclear staining. Images were acquired with an Axio Imager Z1 microscope equipped with ApoTome system controlled by ZEN 2012 software (Carl Zeiss, NY).
Subcellular fractionated lysates were generated using NE-PER Nuclear and Cytoplasmic Extraction Reagents (Thermo Scientific, CO) following manufacturer instructions.

UM tumor xenografts = assay: Human UM tumor xenografts (Mel270, OMM1.3) with VS-4718 in vivo treatment; parameters: species or system mice
Protocol: All animal studies were carried out according the University of California San Diego (UCSD) Institutional Animal Care and Use Committee (IACUC)-approved protocol (S15195). Female NOD.Cg-Prkdcscid Il2rgtm1wjl/SzJ mice (commonly known as […], Jackson Laboratory, Maine), 6 to 8 weeks of age and weighing 18 to 20 g, were used in the study of UM cells, housed in appropriate sterile filter-capped cages, and provided food and water ad libitum. All procedures were essentially as previously described (Feng et al., 2014b; Schrage et al., 2015; Vaque et al., 2013). Briefly, exponentially growing cultures were harvested, washed, resuspended in RPMI 1640, and 2×10^6 viable cells were transplanted subcutaneously into the flanks of mice. For tumor growth analysis, tumor volume was assessed as [(LW^2/2); where L and W represent the length and the width of the tumor]. The animals were monitored twice weekly for tumor development. Results of animal experiments were expressed as mean±SEM of a total of tumors analyzed. To administer VS-4718 (Verastem Oncology; Needham, Mass.) to mice, 10 mg/ml VS-4718 was prepared in 0.5% carboxymethyl cellulose (CMC) (C5678, Sigma-Aldrich; St. Louis, Mo.) 0.1% Tween 80 (P1754, Sigma Aldrich; St. Louis, Mo.) in sterile water, 100 mg/kg administered via oral gavage twice daily, control group was treated with vehicle.
The following antibodies were used for immunohistochemistry anti-Ki67 (DAKO) and anti-YAP (CST). Unstained 5 μm paraffin sections were dewaxed in Safeclear II (Fisher Scientific, PA), hydrated through graded alcohols and distilled water, and washed three times with PBS. Antigens were retrieved using or 10 mM citrate buffer boiled in a microwave for 20 min (2 min at 100% power and 18 min at 10% power). The slides were allowed to cool down for 30 min at room temperature, rinsed twice with PBS, incubated in 3% hydrogen peroxide in PBS for 10 min to quench the endogenous peroxidase. […]

[11] = after prolonged use; cited from earlier work

Q: With `CNS(=O)(=O)Nc1nccc(Cc2c(C)c3ccc(Oc4ncccn4)cc3oc2=O)c1F` [CH5126766] as the molecule, how does the “synergy of growth inhibition in combination with FAKi VS-4718” value (OM cells; combined with VS-4718) read?
A: synergistic anti-proliferative effects

Q: What about the “synergy of anti-proliferative effect in combination with VS-6063 (defactinib)” value (OM cells; combined with VS-6063) of the same molecule?
A: synergistic anti-proliferative effects

Q: Which results are given for `C=C1C(=O)N[C@@H](C)C(=O)N(C)[C@@H](C)C(=O)N[C@@H]([C@H](OC(=O)[C@@H](NC(=O)CC)[C@H](O)C(C)C)C(C)C)C(=O)N(C)[C@@H]([C@@H](C)OC)C(=O)O[C@H](C(C)C)[C@H](NC(C)=O)C(=O)O[C@H](Cc2ccccc2)C(=O)N1C` [FR900359] (Ac-[X1][dPhLac][NMeDha]A[NMeA][X1](Leu(3R-OH,Nα-propionyl))[NMeT](Me); ester 1-C)?
A: SKCM cell proliferation, result in words [1]: only in UM cells; UM cell viability / proliferation, result in words ([2]; UM cell lines): inhibition of cell proliferation; FAK activation (pY397-FAK) in UM cells (FAK [3]): diminished; ERK activation in UM cells (ERK [4]): diminished

Q: For `COc1ccc2c(c1)CC[C@@H]1[C@@H]2CC[C@]2(C)[C@@H](NCCCCCCN3C(=O)C=CC3=O)CC[C@@H]12` [U73122], which “ERK activation by Gαq-DREADD in HEK293 cells” value (ERK [5]) is on record?
A: abolished

Q: And the “FAK activation by Gαq-DREADD in HEK293 cells” value (“FAK activation by Gαq-DREADD” below) (FAK [6])?
A: did not have an impact

Q: With `CNC(=O)c1ccccc1Nc1cc(Nc2ccc(N3CCOCC3)cc2OC)ncc1C(F)(F)F` [VS-4718] as the molecule, how does the EC50 ([1]; Homo sapiens, SK-MEK-28 (BRAF mutant), control) read?
A: > 10 µM

Q: And the “antitumoral profile in OM xenografts (cl-Casp3)” value (92.1 xenograft)?
A: cytostatic profile

Q: And the “mRNA of YAP-target genes CTGF and CYR61 (qPCR)” value [7]?
A: significant reduction

Q: What about the MOB1/LATS interaction [8] of the same molecule?
A: enhanced

Q: And the p909-LATS1 [8]?
A: increase

Q: And the p1079-LATS1 [8]?
A: increase

Q: And the p-MST1 [8]?
A: did not observe an increase

Q: And the “pY26 MOB1” value ([8]; 0-10 μM, 2 hr)?
A: dose-dependent decrease

Q: What about the “YAP phosphorylation on serine 127 (pS127-YAP)” value ([8]; listed as FAKi) of the same molecule?
A: increase

Q: What about the “YAP phosphorylation on tyrosine 357 (Y357)” value ([8]; listed as FAKi) of the same molecule?
A: repressed; also recorded: diminished phosphorylation

Q: What about the “total YAP protein level” value ([8]; long-term (up to 36 hours)) of the same molecule?
A: downregulation

Q: And the “cleaved PARP (UM apoptosis)” value (OMM1.3 cells [9])?
A: accumulation of cleaved PARP; also recorded: increased cleaved PARP

Q: And the EC50 ([2]; Homo sapiens, 92.1, OMM1.3, OMM1.5, Mel270, Mel202, 72 hr, read-out: EC50, sensitivity of UM cell lines to FAK inhibition (cell viability))?
A: ~1 µM

Q: And the “expression of YAP-signature genes (RNA-seq, GSEA)” value (YAP-signature genes)?
A: significant downregulation

Q: What about the “FAK activation (pY397-FAK) in UM cells” value (FAK [3]) of the same molecule?
A: inhibited FAK rapidly; also recorded: decrease in pY397-FAK

Q: What about the “colony formation ability of UM cells” value (OMM1.3 cells [10]) of the same molecule?
A: nearly abolished the colony formation ability

Q: What about the YAP nuclear accumulation (YAP) of the same molecule?
A: clearly diminished

Q: And the “cytoplasmic retention of YAP in tumors” value (UM tumor xenografts; Mel270 tumors)?
A: clearly increased

Q: What about the “cell proliferation in UM tumors (Ki67)” value (UM tumor xenografts; two UM tumor models (Mel270, OMM1.3)) of the same molecule?
A: reduces

Q: And the UM tumor size (UM tumor xenografts; two UM tumor models (Mel270, OMM1.3), 100 mg/kg oral gavage twice daily)?
A: reduces

Q: With `C[C@@H](N)[C@H]1CC[C@H](C(=O)Nc2ccncc2)CC1` [Y-27632] as the molecule, how does the “FAK activation (pY397-FAK) in UM cells” value (FAK [3]) read?
A: repressed FAK activation

Q: What about the “FAK activation by Gαq-DREADD” value (FAK [6]) of the same molecule?
A: repressed FAK activation

Q: For `Cc1ccc2c(c1)C(=O)C1(O)CCN(c3ccccc3)C1=N2` (stereo not drawn) [blebbistatin], which “FAK activation (pY397-FAK) in UM cells” value (FAK [3]) is on record?
A: repressed FAK activation

Q: And the “FAK activation by Gαq-DREADD” value (FAK [6])?
A: repressed FAK activation

Q: Which systemic toxicity [11] does the source give for verteporfin here?
A: high systemic toxicities
